The record followed here is patent US20220290200A1, “GENETICALLY MODIFIED HOST CELLS PRODUCING GLYCOSYLATED CANNABINOIDS” (OCTARINE BIO IVS, priority 2019, published 2022).

This series is described as follows: In vitro glycosyl transferase performance, purified enzymes, % conversion of cannabinoids to cannabinoid glycosides. It is filed as biochemical. Conditions: for Conversion % (CBG to the glycoside): acceptor CBG; for Conversion % (CBD to the glycoside): acceptor CBD; for Conversion % (CBDV to the glycoside): acceptor CBDV; for Conversion % (11-nor-9-carboxy-THC-glycoside produced): substrate 11-nor-9-carboxy-THC, enzyme PL-113(Tc90A_GA); for Conversion % (THC-glycoside produced): substrate THC. As to the method:
For in vitro studies of glycosyl transferase performance in glycosylating cannabinoids, purified Glycosyl transferases were prepared as follows:
5 mL of 2× concentrated LB medium+Ampicillin (50 μg/m L) was inoculated with E. coli XJb (DE3) strains expressing a glycosyl transferase of interest and incubated overnight at 30° C. with shaking. The following day, cell cultures were transferred into 500 mL of 2× concentrated LB medium+Ampicillin (50 μg/mL) and incubated overnight at 30° C. with shaking. The following day, the cell cultures were transferred to 1 L of 2× concentrated LB medium+Ampicillin (50 μg/mL)+3 mM arabinose+0.1 mM IPTG. Cells were incubated for 24 h at 20° C. with shaking. The following day, the cells were collected by centrifugation at 46500×g for 10 mins at 4° C. Cells were resuspended in 20 mL ice-cold GT buffer (50 mM Tris-HCl pH7.4+1 mM phenylmethanesulfonyl fluoride+1 cOmplete™, mini, EDTA-free Protease Inhibitor Cocktail tablet (Roche)). The resuspended material was transferred to a 50 mL falcon tube and kept at −80° C. for at least 15 mins. Falcon tubes were then thawed at room temperature, as the tubes were thawing the following reagents were added; 2.6 mM MgCl2, 1 mM CaCl2, 250 μL of a 1.4 mg/ml DNase solution (Sigma) dissolved in MilliQ water. Tubes were gently inverted to mix then were incubated for 5 mins at 37° C. Binding buffer was then added to the tubes (50 mM Tris-HCl pH7.4, 10 mM imidazole, 500 mM NaCl. 11.25 mL MilliQ water) and the pH adjusted to 7.4 with HCl. The mix was centrifuged at 15550×g for 15 mins at 4° C., the supernatant transferred to a fresh 50 mL falcon tubes and centrifuged again to remove any remaining cellular debris at 48400×g for 20 minutes at 4° C. While the enzyme prep was centrifuging, 3 mL of HIS-Select (available from Sigma P6611) column material was added to a fresh 50 mL tube and washed by adding MilliQ water up to 50 mL, centrifuging at 2000×g for 2 mins and discarding the supernatant. This washing step was repeated. Finally, MilliQ water was added to the HIS-Select material to an approximate 50% volume. Collected supernatant from the centrifuged enzyme preparation was transferred to the tube containing the HIS-Select material through a Miracloth (available from Merck Millipore), and then incubated at 4° C. with gently shaking by inversion for 2 h. After 2 h the mix was centrifuged at 2000×g for 4 minutes at 4° C. and the supernatant discarded. The remaining HIS-Select material was washed twice with 1× binding buffer (50 mM Tris-HCl, 0.5M NaCl, 10 mM Imidazole, pH 7.4) with centrifugation at 2000×g for 4 minutes at 4° C. The HIS-Select material was resuspended in 5 mL 1× binding buffer and transferred to a Poly-Prep®Chromatography Column (available from BioRad, 7311550). The HIS-Select material was kept at 4° C. and washed twice with 1× binding buffer by filling up the column and allowing it to drip through. Finally, purified Glycosyl transferases were eluted from the HIS-Select material by adding 7.5 mL of elution buffer (50 mM Tris-HCl, 500 mM Imidazole, pH7.4) and collecting the flow through. Enzymes were used immediately in in vitro enzyme assays or stored at −20° C. in 50% glycerol until needed.
In vitro conversion of various cannabinoids to cannabinoid glycosides was carried out according to table 21. Alkaline phosphatase was provided by New England Biolabs (M0371S). Cannabinoids were dissolved in methanol. The UDP-sugar (e.g. UDP-glucose) was provided by a commercial supplier (e.g. Sigma) or produced by in vitro enzymatic conversion from a commercially available UDP-sugar as shown in Example 21.
The reaction mixture was scaled up or down as required. The reaction mixture was incubated without shaking at 30° C. for 24 hours. Extraction and analysis were performed as described above for this example. […]

[1] abbreviates: UDP-Xylose, enzyme PL-214(Cs73Y_GA).
Where [2] appears, read: UDP-Glucose, enzyme PL-214(Cs73Y_GA).

As to CBG-1′-O-β-D-tetra-xyloside [OB40], the “Conversion % (CBG to the glycoside)” value under setting [1] amounted to 1.2%. Consider `C=C(C)C1CCC(C)=CC1c1c(O)cc(CCCCC)cc1OC1OC(COC2OC(CO)C(O)C(O)C2O)C(O)C(O)C1O` (stereo not shown) [OB3], for which the “Conversion % (CBD to the glycoside)” value (UDP-Glucose, enzymes PL-159(Pt88G_GA) + PL-152(Si94D_GA)) was determined as 96.4%.

Take `C=C(C)[C@@H]1CCC(C)=C[C@H]1c1c(O)cc(CCC)cc1O[C@@H]1O[C@H](CO)[C@@H](O)[C@H](O)[C@H]1O` [OB24, CBDV-1′-O-β-D-glucoside]: the “Conversion % (CBDV to the glycoside)” value (UDP-Glucose, enzyme PL-326(Ha72B_GA)) stood at 92.6%. Regarding `C=C(C)[C@@H]1CCC(C)=C[C@H]1c1c(O[C@@H]2O[C@H](CO)[C@@H](O)[C@H](O)[C@H]2O)cc(CCC)cc1O[C@@H]1O[C@H](CO)[C@@H](O)[C@H](O)[C@H]1O` [OB25, CBDV-1′-O-β-O-glucosyl-3′-O-β-D-glucoside], the “Conversion % (CBDV to the glycoside)” value (UDP-Glucose, enzyme PL-342(Cp73B_GA)) is reported as 4.5%. For “11-nor-9-carboxy-THC-1′-O-β-D-di-glucoside [OB42]”, the “Conversion % (11-nor-9-carboxy-THC-glycoside produced)” value (sugar donor UDP-Glucose) was found to be 3.4%. Take `CCCCCc1cc(OC2OCC(O)C(O)C2O)c2c(c1)OC(C)(C)C1CCC(C)=CC21` (stereo not shown) [OB21]: the “Conversion % (THC-glycoside produced)” value (sugar donor UDP-Xylose, enzyme PL-214(Cs73Y_GA)) is recorded as 19.5%. For `CCCCCc1cc(O[C@@H]2O[C@H](CO)[C@@H](O)[C@H](O)[C@H]2O)c2c(c1)OC(C)(C)[C@@H]1CCC(C)=C[C@@H]21` [OB20, THC-1′-O-β-D-glucoside], the “Conversion % (THC-glycoside produced)” value (sugar donor UDP-Glucose, enzyme PL-182(Ha88B_2_GA)) is listed as 74.9%. As to `C=C(C)C1CCC(C)=CC1c1c(OC2OC(CO)C(O)C(O)C2O)cc(CCCCC)c(C(=O)O)c1O` [OB31, CBDA-1′-O-β-D-glucoside], under “acceptor CBDA, UDP-Glucose, enzyme PL-214(Cs73Y_GA)”, the “Conversion % (CBDA to the glycoside)” value came out at 92%.

For CBN-1′-O-β-D-di-glucoside [OB23], for the setting “substrate CBN, sugar donor UDP-Glucose, enzyme PL-342(Cp73B_GA)”, the “Conversion % (CBN-glycoside produced)” value is reported as 100%. As to `C=C(C)C1CCC(C)=CC1c1c(O)cc(CCC)cc1OC1OCC(O)C(O)C1O` (stereo not shown) [OB29], the “Conversion % (CBDV to the glycoside)” value under setting [1] is given as 12.1%. In the case of `C=C(C)C1CCC(C)=CC1c1c(O)cc(CCCCC)cc1OC1OC(C(=O)O)C(O)C(O)C1O` (stereo not shown) [OB14], the “Conversion % (CBD to the glycoside)” value (UDP-Glucuronic Acid, enzyme PL-214(Cs73Y_GA)) stood at 2.0%.

On to `C=C(C)C1CCC(C)=CC1c1c(O)cc(CCCCC)cc1O[C@@H]1O[C@H](CO)[C@@H](O)[C@H](O[C@@H]2O[C@H](CO)[C@@H](O)[C@H](O)[C@H]2O)[C@H]1O` (stereo partly drawn) [OB2, CBD-1′-O-β-D-laminaribioside], for which the “Conversion % (CBD to the glycoside)” value (UDP-Glucose, enzymes PL-159(Pt88G_GA) + PL-55(Sr76G1_GA)) came to 80.7%. Consider `C=C(C)C1CCC(C)=CC1c1c(O)cc(CCCCC)cc1OC1OC(CO)C(O)C(O)C1O` (stereo not shown) [OB16], for which, under “UDP-Galactose, enzyme PL-214(Cs73Y_GA)”, the “Conversion % (CBD to the glycoside)” value stood at 62%.

For the molecule `CCCCCc1cc(O)c(C/C=C(\C)CCC=C(C)C)c(O[C@@H]2OC[C@@H](O)[C@H](O)[C@H]2O)c1` [OB36], the “Conversion % (CBG to the glycoside)” value under setting [1] was determined as 1.0%. On to “CBD-1′-O-β-D-glucosyl-3′-O-β-D-di-glucoside [OB8]”, for which the “Conversion % (CBD to the glycoside)” value under setting [2] is listed as 12.3%. As for `C=C(C)C1CCC(C)=CC1c1c(O)cc(CCCCC)cc1O[C@@H]1OC[C@@H](O)[C@H](O)[C@H]1O` (stereo partly drawn) [OB9, CBD-1′-O-β-D-xyloside], where the note is “UDP-Xylose, enzyme PL-159(Pt88G_GA)”, the “Conversion % (CBD to the glycoside)” value was 12.4%. For CBD-1′-O-β-D-tri-glucoside [OB7], the “Conversion % (CBD to the glycoside)” value under setting [2] was 27.3%.

On to `CCCCCc1cc(O)c(C/C=C(\C)CCC=C(C)C)c(O[C@@H]2O[C@H](CO)[C@@H](O)[C@H](O)[C@H]2O)c1` [OB32, CBG-1′-O-β-D-glucoside], for which, under “UDP-Glucose, enzyme PL-340(Qs72S_1_GA)”, the “Conversion % (CBG to the glycoside)” value is on record as 98.9%. Consider `CCCCCc1cc(O[C@@H]2O[C@H](CO)[C@@H](O)[C@H](O)[C@H]2O)c(C/C=C(\C)CCC=C(C)C)c(O[C@@H]2O[C@H](CO)[C@@H](O)[C@H](O)[C@H]2O)c1` [OB33, CBG-1′-O-β-D-glucosyl-3′-O-β-D-glucoside], for which the “Conversion % (CBG to the glycoside)” value (UDP-Glucose, enzyme PL-5(At73C5_GA)) came out at 4.5%. For `CCCCCc1cc(O[C@@H]2O[C@H](CO)[C@@H](O)[C@H](O)[C@H]2O)c2c(c1)OC(C)(C)[C@@H]1CCC(C(=O)O)=C[C@@H]21` [OB41, 11-nor-9-carboxy-THC-1′-O-β-D-glucoside], the “Conversion % (11-nor-9-carboxy-THC-glycoside produced)” value (sugar donor UDP-Glucose) is given as 70.2%.

B1: Pt78G: glycosyl transferase, SEQ ID NO: 165, 166 (protein)
chain: MSEARNDLKHIAVLAFPVATHGPPLLSLVRRLSASASYAKFSFFSTKESNSKLFSKEDGLENIKPYNVSDGLPENYNFAGNLDEVMNYFFKATPGNFKQAMEVAVKEVGKDFTCIMSDAFLWFAADFAQELHVPWVPLWTSSSRSLLLVLETDLVHQKMRSIINEPEDRTIDILPGFSELRGSDIPKELFHDVKESQFAAMLCKIGLALPQAAVVASNSFEELDPDAVILFKSRLPKFLNIGPFVLTSPDPFMSDPHGCLEWLDKQKQESVVYISFGSVISLPPQELAELVEALKECKLPFLWSFRGNPKEELPEEFLERTKEKGKVVSWTPQLKVLRHKAIGVFVTHSGWNSVLDSIAGCVPMICRPFFGDQTVNTRTIEAVWGTGLEIEGGRITKGGLMKALRLIMSTDEGNKMRKKLQHLQGLALDAVQSSGSSTKNFETLLEVVAK
Take B1: the “conversion of cannabinoid aglycone to cannabinoid glycoside in 24 h” value (CBG to CBG-1′-O-β-D-glucosyl-3′-O-β-D-glucoside (OB33)) is listed as 100%.

B2: Cp7.38: glycosyl transferase, SEQ ID NO: 191, 192 (protein)
chain: MGSEVLHHDYSQLNIFFFPFMAHGHMIPTLDMAKLFATHGAKTSIITTPLNLPFFSKSIERFSKQTGLEIGVKLLNFPSVEVGLPSGCENADSLPAGEPLIVNKFFAAAGMLKDPLERLLQEFKPDCLIADMFFPWTTDAAAKFDIPRLVFHGTSFFALSASECIRLYTPFNNVSSDSEPFLVPTLPDEIRLTRNQLADFAMKEGDENGIHRLIKEAKESELKSYGVVVNSFYELEPAYADHYRNFLKRKAWHIGPVSLCNKTVEDKAERGKRASIDEDECLKWLNSKAPNSVIYICFGSMANFNSAQLMEIATALDASGQEFIWVVRREKNENNQEDWLPEGFEQRTEGKGLIIRGWAPQVLILEHEAVGGFVTHCGWNSTLEGVTAGMPMVTWPVSAEQFYNEKLVTEVLKIGLSVGVKKWVRSEGDFVSREKVEQAVREIMVGSEAVERRMRAKAMADMARAAVEKGGSSYNDLNALLREVSLMRRQQSQNQ
On to B2, for which, for the setting “CBN to CBN-1′-O-β-D-di-glucoside (OB23)”, the “conversion of cannabinoid aglycone to cannabinoid glycoside in 24 h” value is on record as 100%.
